Measurements: patent publication US20250049747A1, “USE OF HYPERPOLARIZING AGENTS ALONE AND IN COMBINATION WITH OTHER THERAPEUTIC AGENTS FOR TREATING CANCERS INCLUDING GLIOBLASTOMA” (Trustees of Tufts College, priority 2021, published 2025)
Entries after “also recorded” stand apart in the source; their conditions may differ.

Legend:
NG108-15 cells [1] = assay: Automated patch-clamp electrophysiology, resting membrane potential; assay type: cell-based, mouse/rat; conditions: NG108-15, immediately after application
Method: Electrophysiology. SyncroPatch 384PE platform (Nanion Technologies®) was used to perform the automated patch-clamp experiments. This system provides giga-ohm resistance seals during simultaneous recording in the 384-well plate format. Cells were harvested 48-72 h after seeding 1-2×10^6 cells in T175 culture flasks (Falcon), then cells were rinsed with PBS (5 mL) and treated with 3 mL Accutase ([…] technologies) for 5 min at 37° C., re-suspended in 10 mL of serum-free media and pelleted at 1000 rpm for 3 min at RT. […] The cells were kept until the moment of the experiment in a temperature controlled dedicated reservoir at 10° C. and shaken at 200 rpm as described. The experiments were performed within one hour after the harvesting process. The assays were carried in single-hole chips with resistances between 4-5 MΩ after priming the chip with the following solutions (in mM), physiological extracellular solution (pECS) 10 HEPES, 140 NaCl, 5 Glucose, 4 KCl, 2 CaCl2), 1 MgCl2, 295-305 mOsm pH 7.4 (NaOH). Internal recording solution (in mM) 20 EGTA, 50 KCl, 10 NaCl, 60 KF, 10 HEPES at pH 7.2, and 285 mOsm. 15 μL of the cell suspension (50% v/v pECS/Medium no serum) was added to each well to a final density of 50-80K cells/mL. Cell capture was promoted by holding a negative pressure of −100 mbar for 20 s. After successive hyperpolarization steps from −30 mV to −100 mV enhanced the capture the seal followed by the transient addition of a high Ca2+ extracellular solution (80 mM NaCl, 3 mM KCl, 35 mM CaCl2), 10 mM MgCl2, 10 mM HEPES at pH 7.4 and 298 mOsm. High Ca2+ solution is washed out by successive external exchanges replacing half of the volume of the well each time with the external recording solution. All recording solutions were prepared with ultrapure MilliQ water (18 MD-cm). After the formation of the Giga-seal, a 250 mbar pressure was applied to break the membrane patch. Once in whole-cell configuration, different voltage protocols were applied to dissect different conductances in NG108-15 cells. Signals were recorded in the current-clamp mode “I=0” (passive conditions) where no current was injected, to monitor the membrane potential. The membrane potentials were recorded for seven sweeps of 1 sec, with an inter-sweep time of 10 s. The average membrane potentials of the 7 sweeps were reported.
Electrophysiology of NG108-15 Cells Show Changes in Resting Membrane Potential Induced by Treatment. […] Untreated cells were patched, baseline measurements were taken and then the drugs were added and the changes in the cell Vmem were recorded.

NG108-15 cells [2] = assay: Growth and FUCCI assays in NG108-15 cells (cell counts, cell cycle, recovery test); conditions: for cell proliferation compared to control (words): NG108-15, 6 days of treatment
Method: Cells were plated in 96 well plates at a low confluence and drugs were added fresh every other day for 6 days. Some studies removed the drug at 6 days and added media with no drug for an additional 4 days to test for proliferation. Images of the cells were taken every day and a cell profiler pipeline was used to count the cells and determine the ratio of cells in each part of the cell cycle. […] Cell Culture. […] Cells were disassociated with Accutase and passaged when 70% confluent and maintained at 37° C. with 5% C02. Media was changed every two days. […] All drug screens including controls were done using 0.02% DMSO in the high serum Fluorobrite DMEM.
Growth and FUCCI assays. Both cell lines were plated at 5,000 cells per mL into black-walled flat-bottom 96-well plates coated with 1/50 dilution of Matrigel. Images of cells were taken on Day 0 and every subsequent day for 10 days using a Zeiss Axio1 fitted with an on-stage incubator and kept at 37° C. with 5% C02. A 5× objective was used along with filters for YFP, RFP, and CFP and careful calibration of each plate was done to ensure that the same fields of view were imaged each day. Drugs were added after the initial images were taken and then changed every two days until day 6. For recovery experiments, after imaging on day 6, all drugs were removed, and cells were put into imaging media without any added drugs. This media was changed every two days until day 10. Analysis of growth and snap shots of FUCCI reporters over the 6 days or 10 days was done using a CellProfiler [72]pipeline designed by the Broad. The fractional difference in cell number was calculated by dividing the total number of cells each day by the total number of cells from day 0. The ratio of cells in each cell cycle stage every day was determined by counting all the nuclei of one color and dividing it by the total number of nuclei. Blind quality control was done on all the images to make sure that any fibers or image artifacts were not incorrectly counted by the program.

[3] = system: human glioblastoma U87 cells; assay: Growth and FUCCI assays in U87 cells (cell counts, cell cycle, recovery test); assay type: cell-based; conditions: for FUCCI cell cycle proportion: U87, day 6
Method: U87 (ATCC) cells were cultured under the same conditions as the NG108-15 cells minus the HAT supplement and used at passage 7-10 for experiments.

NG108-15 cells [4] = assay: Antibody staining, BrdU and senescence assays in NG108-15 cells; assay type: cell-based, mouse/rat; conditions: NG108-15, 6 days
Method: Antibody Staining, BrdU and Senescence Assays. NG108-15 cells were plated on PEI and Matrigel coated plates at 15,000 or 30,000 cells/mL, U87 cells at 10,000 cells/mL and grown in imaging media for 6 days with drug treatment. Fresh media was added every 2 days. On day 6, cells were fixed with 4% formaldehyde in PBS for 30 minutes for all antibody staining, except for BrdU which was fixed for 15 minutes, and for the senescence assay which was fixed for 20 min using the Senescence Beta-Galactosidase Staining Kit (9860, CellSignaling) and thereafter stained according to manufacturer's protocol. After fixing, cells were washed twice with PBS, and were permeabilized in PBS with 0.3% Triton-X for 15 min then washed again twice with PBS. The cells for the BrdU assay were additionally treated with 1N HCl for 10 min on ice, followed by a treatment with 2N HCl for 50 min at room temp. Cells were then blocked with standard blocking buffer comprised of TBS containing 10% goat serum, 0.1% BSA, and with 0.05% Tween 20 or without detergent for antibodies against phosphorylated proteins or monoclonal antibodies except for Anti-YAP and Anti-BrdU staining, which were done according to manufacturer's protocol. Primary antibodies were added at the following concentrations: 1:250 anti-S100 beta (GTX129573, Genetex), 1:500 anti-GFAP (AB5804, EMD-Millipore), 1:300 anti-SOX10 (ab155279, Abcam), 1:100 MAP2 (4542, CellSignaling), 1:400 anti-cleaved caspase 3 (9661, CellSignaling), 1:300 anti-Cx43 (STJ2411, St. John's Labratory), 1:800 anti-p27^Kip1 (3698, CellSignaling), 1:150 anti-BrdU (5292, CellSignaling), 1:125 anti-LC3-II (2775, CellSignaling), 8 μg/mL anti-04 (MAB1326, R&D Systems), 1:1000 anti-TH (RPCA-TH, Encor), 1:4000 anti-NSE (RPCA-NSE, Encor), 1:4000 anti-NFM (RPCA-NF-M, Encor), 0.5 μg/mL anti-TujI (801202, Biolegend), 1:400 anti-NF-KB p65 (8242, CellSignaling), 1:125 anti-phospho CREB (05-807, EMD-Millipore), 1:250 anti-vimentin (ab92547, Abcam), 1:125 anti-YAP (14074, CellSignaling). Antibodies were diluted in their respective blocking buffer and incubated overnight at 4° C. The next day, cells were washed with TBS-T or TBS for 3× for 5 min each and secondary antibody was added as follows: 1:1000 donkey anti-mouse 647 (A-31571, Thermo-Fisher) or 1:1000 donkey anti-rabbit 647 (A-31573, Thermo-Fisher). Each were diluted in blocking buffer along with 2.5 μg/mL Hoechst 33342 and incubated for 1 hour at room temperature. Cells were then washed again with TBS-T or TBS for 3× for 5 min each and covered with Gelvatol. Cells were imaged with an EVOS M7000 system, with at least 50% of each well in a 96 well plate imaged and analyzed using a CellProfiler pipeline for measuring integrated intensity, mean intensity, or nuclear to cytoplasmic ratio of mean intensities.

[5] = human, in vivo; cited from earlier work
[6] = cited from earlier work

Structure (SMILES): Nc1nnc(-c2cccc(Cl)c2Cl)c(N)n1 [Lamotrigine, lamotrigine]
- change in resting membrane potential compared to control (NG108-15 cells [1]): significantly hyperpolarized

Structure (SMILES): CO[C@H]1C[C@@H]2CC[C@@H](C)[C@@](O)(O2)C(=O)C(=O)N2CCCC[C@H]2C(=O)O[C@H]([C@H](C)C[C@@H]2CC[C@@H](O)[C@H](OC)C2)CC(=O)[C@H](C)/C=C(\C)[C@@H](O)[C@@H](OC)C(=O)[C@H](C)C[C@H](C)/C=C/C=C/C=C/1C [Rapamycin, rapamycin]
- cell proliferation compared to control (words) (NG108-15 cells [2]): very significant decrease in proliferation
- FUCCI cell cycle proportion (NG108-15 cells [2]; NG108-15, day 6): increase in cells arrested at G1; also recorded: increased the proportion of cells in G1
- FUCCI cell cycle proportion [3]: increase in the G1 proportion
- change in resting membrane potential compared to control (NG108-15 cells [1]): significantly hyperpolarized
- LC3-II stain (NG108-15 cells [4]): significant increase
- blood-brain barrier penetrance [5]: cross the blood brain barrier effectively

Structure (SMILES): CCOC(=O)Nc1ccc(NCc2ccc(F)cc2)cc1N [Retigabine, retigabine]
- plasma protein binding affinity [6]: about 80%
- change in resting membrane potential compared to control (NG108-15 cells [1]): significantly hyperpolarized; also recorded: hyperpolarized NG108-15 cells only slightly
- BrdU incorporation (NG108-15 cells [4]): significant decrease
- cleaved caspase 3 staining (NG108-15 cells [4]): decrease the cleaved caspase 3 positive cells significantly

Structure (SMILES): Cn1nnc2c(C(N)=O)ncn2c1=O [TMZ, temozolomide]
- cell proliferation compared to control (words) (NG108-15 cells [2]): not significantly effective at reducing proliferation
- cell proliferation compared to control (words) (NG108-15 cells [2]; listed as temozolomide): not effective
- cell proliferation compared to control (words) ([3]; U87, 6 days): significantly effective
- percent reduction in cells compared to control ([3]; U87, 6 days of treatment): 43%
- FUCCI cell cycle proportion [3]: did not show a large change in proportion of cells
- recovery of proliferation after treatment removed ([3]; U87, drugs removed at day 6, followed to day 10): slight increase in proliferation after treatment was removed
- change in resting membrane potential compared to control (NG108-15 cells [1]): significantly hyperpolarized
